Measurements published in article PMC4481117 (Molecular Pain, 2015).

What was measured:
wild-type macrophages = test: Transwell migration of wild-type peritoneal macrophages to Dyn A; assay type: cell-based, mouse; settings: 10 μM Dyn A, 90 min at 37 °C, TG-elicited
Method: Fig. 6 Migration of Mac-1-expressing cells to Dyn A in a Transwell system. a, Mac-1-expressing HEK 293 cells (100 μl at 3 × 10^6 cell/ml) were added to the upper wells of the transwell chamber and their ability to migrate to different concentrations of Dyn A placed in the lower chamber was analyzed. After 16 hours at 37 °C, migrated cells were fixed, stained, and counted. Data are presented as numbers of migrated cells per field ± S.E. for five random fields per well. The figure is representative of 5 experiments. b, Mac-1-expressing or wild-type HEK 293 cells were added to the upper wells of the transwell chamber and their ability to migrate to 10 μM Dyn A placed in the lower chamber was analyzed as in A. Some Mac-1-HEK293 cells were pretreated with 20 μg/ml of mAbs 44a (anti-αM), IB4 (anti-β2) or OKM1 (non function-blocking anti-αM) or medium alone before addition to the upper wells. ***, medium alone. […] The number of migrated cells was determined as in A. Data are presented as number of migrated cells per field ± S.E. for five random fields per well. […]
Migration assays with wild-type and Mac-1-expressing HEK293 cells and purified macrophages using Transwell inserts (5 μm pore size) were performed as previously described. […] The photographs were taken using a 20x objective and cells in […] and cells were counted. […]

IC-21 macrophages = test: Phagocytosis of Dyn A-coated latex beads by IC-21 macrophages; assay type: cell-based, murine; settings: 1 μm beads preincubated with 50 μg/ml Dyn A, 30 min at 37 °C; vs control beads
Method: Fig. 8 Effect of Dyn A on phagocytosis of latex beads. a, Fluorescent latex beads (1x10^9/ml) were preincubated with Dyn A (50 μg/ml) for 40 min at 37 °C. Soluble peptide was removed from the beads by high-speed centrifugation. Peptide-coated beads were incubated with adherent IC-21 macrophages for 30 min at 37 °C. Nonphagocytosed beads were removed from cells by washing with PBS. […] Rat IgG2b was used as an isotype control for anti-αM mAb M1/70. Phagocytosis was quantified for five random fields per well using a 20x objective. Phagocytosis of Dyn A-treated beads was assigned as 100 %.
A suspension of fluorescent […] latex beads (1x10^9/ml) (FluoSpheres sulfate microspheres, Life Technologies, Carlsbad, CA) was incubated with 50 μg/ml of Dyn A for 40 min at 37 °C, then unbound peptide was removed by centrifugation. IC-21 murine macrophages (5 × 10^5/ml) were adhered on the cover glass for 30 min and 3 × 10^6 of peptide-coated beads were added to adherent IC-21 cells. After incubating for 30 minutes at 37 °C, nonphagocytosed beads were separated from macrophages by washing with 3x1 ml PBS and phagocytosed beads were counted in the presence of trypan blue. […] The ratio of beads per macrophage was quantified by taking photographs of five fields for each well using a Leica DM4000 B microscope (Leica Microsystems, Buffalo Grove, IL) with a 20 × objective.

For `CC[C@H](C)[C@H](NC(=O)[C@H](CCCNC(=N)N)NC(=O)[C@H](CCCNC(=N)N)NC(=O)[C@H](CC(C)C)NC(=O)[C@H](Cc1ccccc1)NC(=O)CNC(=O)CNC(=O)[C@@H](N)Cc1ccc(O)cc1)C(=O)N[C@@H](CCCNC(=N)N)C(=O)N1CCC[C@H]1C(=O)N[C@@H](CCCCN)C(=O)N[C@@H](CC(C)C)C(=O)N[C@@H](CCCCN)C(=O)N[C@@H](Cc1c[nH]c2ccccc12)C(=O)N[C@@H](CC(=O)O)C(=O)N[C@@H](CC(N)=O)C(=O)N[C@@H](CCC(N)=O)C(=O)O` [Dyn A], the “Migration of wild-type macrophages (in words)” value (wild-type macrophages) was “migrated to Dyn A” and the “Augmentation of bead uptake” value (IC-21 macrophages) was ~ 10 -fold.
